{"source": "patent US20100249248A1", "about": "“LIGAND AGENTS FOR PEROXISOME PROLIFERATOR-ACTIVATED RECEPTORS (PPARs)” (Suntory Holdings Limited, priority 2007, published 2010)", "assay_type_in_all_cases": "cell-based", "key": {"[1]": {"molecular_target": "T1, PPARγ (Rattus norvegicus, UniProt O88275)", "T1 construct": "expressed in transfected cells", "T1 sequence (O88275 1-505)": "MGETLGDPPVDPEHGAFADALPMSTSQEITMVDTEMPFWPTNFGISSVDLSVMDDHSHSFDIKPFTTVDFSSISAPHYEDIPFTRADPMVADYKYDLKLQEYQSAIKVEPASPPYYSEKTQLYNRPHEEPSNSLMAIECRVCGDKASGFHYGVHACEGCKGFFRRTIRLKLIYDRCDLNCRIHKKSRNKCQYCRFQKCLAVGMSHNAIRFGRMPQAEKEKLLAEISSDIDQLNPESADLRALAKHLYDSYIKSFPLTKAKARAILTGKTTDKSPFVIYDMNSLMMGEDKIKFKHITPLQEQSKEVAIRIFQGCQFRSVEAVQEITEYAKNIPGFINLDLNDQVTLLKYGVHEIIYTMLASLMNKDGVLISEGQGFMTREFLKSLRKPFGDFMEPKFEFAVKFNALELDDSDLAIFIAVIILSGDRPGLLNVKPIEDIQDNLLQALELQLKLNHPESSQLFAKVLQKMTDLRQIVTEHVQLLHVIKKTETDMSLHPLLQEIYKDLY", "experiment": "PPARγ ligand activity, PPRE-luciferase reporter in CHO/PPARγ/PPRE cells", "conditions": "Table 4; positive control run beside each sample; 25 μM", "from_the_text": "CHO cells used for measurement of PPARγ ligand activity were obtained in the following manner.\nA PPAR reporter plasmid (pPPRE-Luc) was derived from a reporter plasmid, pGL3 (Promega), which contains the SV40 promoter gene and the firefly luciferase gene by being modified to have 3 copies of a PPAR-responsive sequence (PPRE) upstream of the SV40 promoter gene. A PPARγ expression plasmid (pKD-rPPARγ) was obtained by inserting the rat PPARγ gene into an SV40 promoter-driven expression plasmid for mammalian cells. pPPRE-Luc and pKD-rPPARγ were co-transfected into CHO(dhfr-) cells (dihydrofolate reductase-deficient cell line of Chinese hamster ovary cells) using Lipofectamine (Invitorgen). The cells were cultured in D-MEM medium (GIBCO) almost free from thymidine and containing dialyzed fetal bovine serum (GIBCO) to thereby obtain a stable transformant (CHO/PPARγ/PPRE) retaining pPPRE-Luc and pKD-rPPARγ.\nThe above cells were seeded in 96-well culture plates at 1×10^4 cells/well and cultured at 37° C. under 5% CO2 for 24 hours. […] After washing with phosphate-buffered saline (PBS-), the cells were lysed with a cytolysis solution (Cell Culture Lysis Reagent: Promega) and measured for the luminescence intensity of luciferase with a multilabel counter (Wallac) in the presence of a Luciferase Assay Reagent (Promega). […]"}, "[2]": {"molecular_target": "T2, PPARδ (Mus musculus, UniProt P35396)", "T2 construct": "expressed in transfected cells; host or cells: HepG2 cells (human liver cancer-derived)", "T2 sequence (P35396 1-440)": "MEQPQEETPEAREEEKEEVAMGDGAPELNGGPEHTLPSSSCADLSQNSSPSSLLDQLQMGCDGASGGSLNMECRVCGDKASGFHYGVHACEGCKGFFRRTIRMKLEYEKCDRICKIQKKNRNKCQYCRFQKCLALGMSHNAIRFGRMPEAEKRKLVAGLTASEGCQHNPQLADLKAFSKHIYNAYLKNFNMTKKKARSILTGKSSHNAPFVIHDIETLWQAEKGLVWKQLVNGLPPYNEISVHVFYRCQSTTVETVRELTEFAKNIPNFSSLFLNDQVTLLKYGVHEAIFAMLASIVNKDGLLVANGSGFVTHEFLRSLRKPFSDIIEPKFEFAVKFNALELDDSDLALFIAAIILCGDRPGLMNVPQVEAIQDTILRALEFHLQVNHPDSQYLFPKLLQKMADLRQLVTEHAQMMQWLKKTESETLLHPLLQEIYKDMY", "experiment": "PPARδ ligand activity, GAL4::mPPARδ luciferase reporter assay in HepG2 cells", "procedure": "HepG2 cells (human liver cancer-derived cultured cells) were seeded in 96-well culture plates at 1×10^4 cells/well and cultured at 37° C. under 5% CO2 for 24 hours. The medium used was RPMI1640 (Nissui Pharmaceutical Co., Ltd., Japan) containing 10% FBS (fetal bovine serum; Equitech-Bio) and 0.3 g/L L-Glutamine (Nissui Pharmaceutical Co., Ltd., Japan). These cells were washed with OPTI-MEM (Gibco) and then transfected with pBIND/GAL4::mPPARδ and pG51uc (Promega). […]\nAt about 24 hours after transfection, the medium was replaced with another medium containing a plant extract, followed by culturing for 24 hours. […] After washing with phosphate-buffered saline (PBS—), the cells were lysed with a cytolysis solution (Cell Culture Lysis Reagent: Promega) and measured for the luminescence intensity of luciferase with a multilabel counter (Wallac) in the presence of a Luciferase Assay Reagent (Promega). […] For assessment of ligand activity, the ratio of luminescence intensity in a sample to that in the control (vehicle control) was defined as the luminescence ratio of PPARδ ligand activity in the sample, and a sample showing a value of 1.3 or greater was determined as having PPARδ ligand activity.\nThe ethanol extract of each plant obtained in Sample Preparation Example 2 was measured for its PPARγ ligand activity in the same manner as shown in Example 1. […]"}, "[3]": {"molecular_target": "T3, PPARα (Mus musculus, UniProt P23204)", "T3 construct": "expressed in transfected cells; host or cells: HepG2 cells (human liver cancer-derived)", "T3 sequence (P23204 1-468)": "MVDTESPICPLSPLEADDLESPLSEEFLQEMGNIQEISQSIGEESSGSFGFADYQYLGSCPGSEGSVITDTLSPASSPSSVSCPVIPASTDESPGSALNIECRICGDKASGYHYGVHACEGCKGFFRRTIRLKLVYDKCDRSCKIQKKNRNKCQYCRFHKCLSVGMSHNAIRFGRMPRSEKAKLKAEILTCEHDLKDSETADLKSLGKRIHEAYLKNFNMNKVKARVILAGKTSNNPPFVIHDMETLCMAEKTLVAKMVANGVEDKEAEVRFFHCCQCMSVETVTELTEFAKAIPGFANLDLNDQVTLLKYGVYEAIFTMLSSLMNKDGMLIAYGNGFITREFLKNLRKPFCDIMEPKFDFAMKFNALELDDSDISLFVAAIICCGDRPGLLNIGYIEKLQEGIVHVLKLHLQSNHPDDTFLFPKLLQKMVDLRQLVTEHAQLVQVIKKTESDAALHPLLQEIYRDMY", "experiment": "PPARα ligand activity, GAL4::mPPARα luciferase reporter assay in HepG2 cells", "conditions": "Table 3; positive control run beside each sample; 25 μM", "procedure": "HepG2 cells (human liver cancer-derived cultured cells) were seeded in 96-well culture plates at 1×10^4 cells/well and cultured at 37° C. under 5% CO2 for 24 hours. The medium used was RPMI1640 (Nissui Pharmaceutical Co., Ltd., Japan) containing 10% FBS (fetal bovine serum; Equitech-Bio) and 0.3 […] Pharmaceutical Co., Ltd., Japan). […] At about 24 hours after transfection, the medium was replaced with another medium containing a plant extract, followed by culturing for 24 hours. As a vehicle control, DMSO was used and added in 1/100 volume to the medium. After washing with phosphate-buffered saline (PBS-), the cells were lysed with a cytolysis solution (Cell Culture Lysis Reagent: Promega) and measured for the luminescence intensity of luciferase with a multilabel counter (Wallac) in the presence of a Luciferase Assay Reagent (Promega). On the other hand, a synthetic PPARδ agonist, L-165041 (Sigma, […]), was used as a positive control. […] On the other hand, a synthetic PPARα agonist, WY-14643 (Sigma, 25 μM), was used as a positive control."}}, "note": "“And” between values parts separate entries of the source, which are not always exact repeats. Equal values may be shown once.", "data": [{"molecule": "CC1(COc2ccc(CC3SC(=O)NC3=O)cc2)CCCCC1", "note": "(stereo not shown) [Ciglitizone]", "values": [{"measurement": "Luminescence ratio in Ciglitizone", "setting": "[1]", "result": "2.2 and 2.5 and 2.6 and 2.7 and 3.0 and 2.4"}]}, {"molecule": "CCCc1c(OCCCOc2ccc(OCC(=O)O)cc2)ccc(C(C)=O)c1O", "note": "[L-165041]", "values": [{"measurement": "Luminescence ratio in L-165041", "setting": "[2]; Table 5, positive control run beside each ethanol extract", "result": "4.5 and 4.9 and 6.1 and 6.2 and 5.2 and 4.8 and 4.7"}, {"measurement": "Luminescence ratio in L-165041", "setting": "[2]; Table 6, positive control run beside each hot water extract", "result": "4.5 and 3.8 and 6.2 and 5.8"}]}, {"molecule": "Cc1cccc(Nc2cc(Cl)nc(SCC(=O)O)n2)c1C", "note": "[WY-14643]", "values": [{"measurement": "Luminescence ratio in WY-14643", "setting": "[3]", "result": "4.2 and 4.4 and 7.6"}]}]}
